Legend:
Type in all cases: binding
Details in all cases: Compound Concentration 10 µM
panel of 442 kinases [1] = biological target: T1, panel of 442 kinases (Homo sapiens, UniProt O00750)
T1 construct: purchased KINOMEscan
Source text: (§1) We assessed the selectivity of members of this scaffold using the KINOMEscan methodology across a near comprehensive panel of 442 kinases [[18,27]].

panel of 442 kinases [2] = biological target: T2, panel of 442 kinases (Homo sapiens, UniProt P17612)
T2 construct: purchased KINOMEscan
Source text: as §1

panel of 442 kinases [3] = biological target: T3, panel of 442 kinases (Homo sapiens, UniProt Q00535)
T3 construct: purchased KINOMEscan
T3 sequence (Q00535 whole entry): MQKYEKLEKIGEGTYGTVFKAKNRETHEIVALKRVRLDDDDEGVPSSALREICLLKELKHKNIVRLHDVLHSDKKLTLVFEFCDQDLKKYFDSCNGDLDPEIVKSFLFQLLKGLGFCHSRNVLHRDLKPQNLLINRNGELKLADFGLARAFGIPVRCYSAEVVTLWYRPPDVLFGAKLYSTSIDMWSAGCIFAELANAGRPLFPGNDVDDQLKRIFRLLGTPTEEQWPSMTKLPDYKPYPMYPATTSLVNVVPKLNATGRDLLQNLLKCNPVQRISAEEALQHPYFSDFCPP
Source text: as §1

T1 sequence (O00750 whole entry): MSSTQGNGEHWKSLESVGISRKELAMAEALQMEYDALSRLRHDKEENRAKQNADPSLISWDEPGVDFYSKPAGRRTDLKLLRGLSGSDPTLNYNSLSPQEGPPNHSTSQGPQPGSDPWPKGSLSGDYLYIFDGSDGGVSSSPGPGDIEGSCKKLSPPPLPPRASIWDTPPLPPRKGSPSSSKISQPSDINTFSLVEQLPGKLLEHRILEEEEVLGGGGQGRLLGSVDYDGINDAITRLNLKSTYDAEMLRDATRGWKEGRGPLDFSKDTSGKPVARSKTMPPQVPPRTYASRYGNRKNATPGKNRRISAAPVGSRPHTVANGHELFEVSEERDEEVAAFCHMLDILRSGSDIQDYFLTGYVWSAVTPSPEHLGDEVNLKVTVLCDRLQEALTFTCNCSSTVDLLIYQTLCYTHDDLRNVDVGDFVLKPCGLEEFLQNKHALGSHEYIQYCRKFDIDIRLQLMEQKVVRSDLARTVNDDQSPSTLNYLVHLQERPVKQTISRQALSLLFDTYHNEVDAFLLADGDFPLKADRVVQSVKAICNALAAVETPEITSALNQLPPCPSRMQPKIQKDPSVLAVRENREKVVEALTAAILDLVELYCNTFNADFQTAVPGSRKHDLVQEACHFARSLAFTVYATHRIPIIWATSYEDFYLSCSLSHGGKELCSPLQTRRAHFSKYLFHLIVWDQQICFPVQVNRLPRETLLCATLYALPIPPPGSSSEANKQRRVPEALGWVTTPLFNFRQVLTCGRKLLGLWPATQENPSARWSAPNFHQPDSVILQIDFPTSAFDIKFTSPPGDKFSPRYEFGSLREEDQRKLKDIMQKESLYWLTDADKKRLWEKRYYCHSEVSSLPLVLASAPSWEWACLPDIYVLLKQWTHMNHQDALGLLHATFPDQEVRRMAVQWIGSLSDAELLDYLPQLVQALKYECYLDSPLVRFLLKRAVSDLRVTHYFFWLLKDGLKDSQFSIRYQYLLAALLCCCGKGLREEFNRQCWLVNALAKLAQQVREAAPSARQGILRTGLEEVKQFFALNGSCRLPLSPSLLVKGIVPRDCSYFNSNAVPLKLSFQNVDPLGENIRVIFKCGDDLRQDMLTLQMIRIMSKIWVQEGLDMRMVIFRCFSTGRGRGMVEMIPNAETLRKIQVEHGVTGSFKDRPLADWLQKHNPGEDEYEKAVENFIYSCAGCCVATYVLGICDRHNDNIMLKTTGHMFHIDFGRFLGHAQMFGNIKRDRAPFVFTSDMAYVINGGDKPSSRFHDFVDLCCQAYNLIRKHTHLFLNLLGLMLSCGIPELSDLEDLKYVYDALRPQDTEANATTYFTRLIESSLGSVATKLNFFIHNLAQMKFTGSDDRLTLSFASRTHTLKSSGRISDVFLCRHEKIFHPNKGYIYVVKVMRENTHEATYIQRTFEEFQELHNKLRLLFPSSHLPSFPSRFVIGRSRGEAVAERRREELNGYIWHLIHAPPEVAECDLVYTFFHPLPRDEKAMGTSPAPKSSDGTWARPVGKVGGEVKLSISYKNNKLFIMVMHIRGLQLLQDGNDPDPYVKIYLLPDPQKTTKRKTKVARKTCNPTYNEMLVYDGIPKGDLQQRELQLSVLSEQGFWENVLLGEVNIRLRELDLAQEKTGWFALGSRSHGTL

SMILES | KINOMEscan: PIK3C2B (panel of 442 kinases [1]) | KINOMEscan: PKAC-alpha (panel of 442 kinases [2]) | KINOMEscan: CDK5 (panel of 442 kinases [3])
COc1cc(C(=O)N2CCC(N3CCN(C)CC3)CC2)ccc1Nc1ncc2c(n1)N(C)c1ccccc1C(=O)N2C [15 (LRRK2-IN-1)] | 100 | 100 | 81
COc1cc(C(=O)N2CCC(N3CCN(C)CC3)CC2)ccc1Nc1ncc2c(n1)N(C1CCCC1)c1ccccc1C(=O)N2C [Compound 25, 11-cyclopentyl-2-((2-methoxy-4-(4-(4-methylpiperazin-1-yl)piperidine-1-carbonyl)phenyl)amino)-5-methyl-5H-benzo[e]pyrimido[5,4-b][1,4]diazepin-6(11H)-one] | 100 | 100 | 94
CCOc1cc(C(=O)N2CCC(N3CCN(C)CC3)CC2)ccc1Nc1ncc2c(n1)N(C1CCCC1)c1ccccc1C(=O)N2C [Compound 26] | 100 | 100 | 100

From publication PMC3914206
